In ChEMBL document CHEMBL5370549, “Optimization and evaluation of pyridinyl vinyl sulfones as Nrf2 activator for the antioxidant and anti-inflammatory effects” (Eur J Med Chem, 2023):
The source made the active and inactive calls. No cut-off for these calls is given here.

How the values were obtained:
[1] = target: T1, Nuclear factor erythroid 2-related factor 2 (Mus musculus) (UniProt Q60795); assay: Activation of Nrf2 in mouse BV-2 cells assessed as increase in HO-1 protein expression measured after 9 hrs by immunoblot analysis; format: cell-based; details: filed as activator, dose 0.01-3 µM
T1 sequence (whole entry): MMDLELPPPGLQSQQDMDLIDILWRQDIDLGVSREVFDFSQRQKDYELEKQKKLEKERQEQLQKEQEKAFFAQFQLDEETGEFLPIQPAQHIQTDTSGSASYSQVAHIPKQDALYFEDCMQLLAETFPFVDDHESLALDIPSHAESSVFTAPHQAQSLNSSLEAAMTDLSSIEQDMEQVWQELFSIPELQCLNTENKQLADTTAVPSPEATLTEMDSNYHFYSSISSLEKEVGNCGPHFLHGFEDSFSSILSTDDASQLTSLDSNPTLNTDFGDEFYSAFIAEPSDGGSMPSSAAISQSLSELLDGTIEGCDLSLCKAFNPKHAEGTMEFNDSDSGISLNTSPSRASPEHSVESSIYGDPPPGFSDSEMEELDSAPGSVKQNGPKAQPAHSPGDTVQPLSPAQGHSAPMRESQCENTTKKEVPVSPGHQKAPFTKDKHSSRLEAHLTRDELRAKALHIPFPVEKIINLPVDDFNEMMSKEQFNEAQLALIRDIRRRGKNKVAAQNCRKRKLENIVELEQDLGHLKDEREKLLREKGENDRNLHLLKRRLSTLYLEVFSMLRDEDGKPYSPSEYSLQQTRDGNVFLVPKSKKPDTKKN

[2] = test system: BV-2; assay: Antiinflammatory activity against LPS-induced mouse BV-2 cells assessed as inhibition of IL-6 production at 0.1 to 3 uM pretreated for 6 hrs followed by LPS stimulation for 24 hrs by ELISA; format: functional, cell-based; details: dose 0.1-3 µM, time 30.0 hrs
[3] = target: T2, CYP1A2 (Homo sapiens, UniProt P05177); assay: Inhibition of CYP1A2 (unknown origin) assessed as enzyme activity at 10 uM relative to control; format: ADME; design: scale not given: the % may be the effect or the level left; details: read-out: Activity
T2 sequence (P05177 whole entry): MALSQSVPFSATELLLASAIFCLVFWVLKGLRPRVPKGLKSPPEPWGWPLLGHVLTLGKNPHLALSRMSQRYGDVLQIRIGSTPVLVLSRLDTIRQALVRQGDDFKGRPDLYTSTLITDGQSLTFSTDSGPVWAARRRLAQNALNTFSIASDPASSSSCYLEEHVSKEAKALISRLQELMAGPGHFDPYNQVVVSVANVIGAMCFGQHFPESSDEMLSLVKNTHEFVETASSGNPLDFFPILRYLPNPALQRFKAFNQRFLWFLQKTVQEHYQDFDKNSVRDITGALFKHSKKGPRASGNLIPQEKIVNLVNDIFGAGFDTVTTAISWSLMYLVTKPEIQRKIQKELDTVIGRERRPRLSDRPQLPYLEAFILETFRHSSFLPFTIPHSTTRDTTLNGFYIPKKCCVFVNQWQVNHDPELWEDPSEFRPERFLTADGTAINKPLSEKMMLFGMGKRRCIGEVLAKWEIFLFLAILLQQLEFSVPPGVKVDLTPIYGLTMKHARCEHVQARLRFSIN

[4] = test system: BV-2; assay: Antiinflammatory activity against LPS-induced mouse BV-2 cells assessed as inhibition of IL-1 beta protein expression at 0.001 to 1 uM pretreated for 6 hrs followed by LPS stimulation for 24 hrs by immunoblot analysis; format: functional, cell-based; details: dose 0.001-1 µM, time 30.0 hrs
[5] = target: T3, Nuclear factor erythroid 2-related factor 2 (Homo sapiens, UniProt Q16236); assay: Activation of Nrf2 in human U2OS cells co-expressing Keap1 assessed as induction of Nrf2 nuclear translocation incubated for 6 hrs by PathHunter chemiluminescence based analysis; format: cell-based
T3 sequence (Q16236 whole entry): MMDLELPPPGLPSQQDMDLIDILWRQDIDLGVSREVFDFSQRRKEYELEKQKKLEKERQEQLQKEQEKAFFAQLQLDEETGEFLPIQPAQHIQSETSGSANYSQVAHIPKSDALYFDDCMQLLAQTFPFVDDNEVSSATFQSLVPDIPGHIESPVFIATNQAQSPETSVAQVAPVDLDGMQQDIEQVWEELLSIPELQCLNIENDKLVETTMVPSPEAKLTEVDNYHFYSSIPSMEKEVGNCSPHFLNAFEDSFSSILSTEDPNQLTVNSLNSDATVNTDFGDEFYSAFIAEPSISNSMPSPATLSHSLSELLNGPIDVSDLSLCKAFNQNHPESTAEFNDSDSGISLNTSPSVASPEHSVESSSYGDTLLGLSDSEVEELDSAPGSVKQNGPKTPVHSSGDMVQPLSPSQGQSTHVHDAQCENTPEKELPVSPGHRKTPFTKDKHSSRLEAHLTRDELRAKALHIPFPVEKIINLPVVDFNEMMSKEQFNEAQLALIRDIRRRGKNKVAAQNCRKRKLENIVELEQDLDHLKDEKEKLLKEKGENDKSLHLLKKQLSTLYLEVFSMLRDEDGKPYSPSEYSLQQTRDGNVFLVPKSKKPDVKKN

[6] = test system: BV-2; assay: Antiinflammatory activity against LPS-induced mouse BV-2 cells assessed as inhibition of TNF-alpha production at 0.1 to 3 uM pretreated for 6 hrs followed by LPS stimulation for 24 hrs by ELISA; format: functional, cell-based; details: dose 0.1-3 µM, time 30.0 hrs
[7] = test system: BV-2; assay: Antiinflammatory activity against LPS-induced mouse BV-2 cells assessed as inhibition of IL-6 mRNA expression at 0.03 to 3 uM pretreated for 6 hrs followed by LPS stimulation for 6 hrs by qRT-PCR analysis; format: functional, cell-based; details: dose 0.03-3 µM, time 12.0 hrs
[8] = test system: Mus musculus; assay: (§1) Antiinflammatory activity against LPS-induced neuroinflammation C57BL/6N mouse model assessed as reduction of glial cell reactivity by measuring reduction in GFAP expression in cortex at 20 mg/kg/day, po administered for 3 days followed by LPS administration for 7 days by immunofluorescence staining based analysis; format: functional, organism-based; details: time 10.0 day
[9] = target: T1, Nuclear factor erythroid 2-related factor 2 (Mus musculus); assay: Activation of Nrf2 in mouse BV-2 cells assessed as increase in Gclm mRNA expression incubated for 3 hrs by qRT-PCR analysis; format: cell-based; details: filed as activator, dose 0.01-3 µM
[10] = target: T1, Nuclear factor erythroid 2-related factor 2 (Mus musculus); assay: Activation of Nrf2 in mouse BV-2 cells assessed as increase in Nrf2 level in whole cell lysates measured after 3 hrs by immunoblot analysis; format: subcellular; details: filed as activator, dose 0.01-3 µM
[11] = Metabolic stability of the compound in mouse liver microsomes assessed as parent compound remaining measured after 30 mins; format: ADME, Microsome; details: read-out: Stability
[12] = target: T1, Nuclear factor erythroid 2-related factor 2 (Mus musculus); assay: Activation of Nrf2 in mouse BV-2 cells assessed as increase in Nrf2 level in whole cell lysates at 3 uM measured after 3 hrs by immunoblot analysis; format: subcellular; details: filed as activator
[13] = test system: Mus musculus; assay: as §1, with “IBA1” for “GFAP”, “hippocampus CA3 region” for “cortex”; format: functional, organism-based; details: time 10.0 day
[14] = test system: Mus musculus; assay: as §1, with “hippocampus CA1 region” for “cortex”; format: functional, organism-based; details: time 10.0 day
[15] = target: T1, Nuclear factor erythroid 2-related factor 2 (Mus musculus); assay: Activation of Nrf2 in mouse BV-2 cells assessed as increase in GCLM protein expression measured after 12 hrs by immunoblot analysis; format: cell-based; details: filed as activator, dose 0.01-3 µM

Activity [1]: Dose-Dependent Effect
activity at 10 µM [3]: 84.9%
EC50 [5]: 37 nM
Activity [9]: Dose-Dependent Effect
Activity [10]: Dose-Dependent Effect
remaining at 0.5 h [11]: 61%
Activity [12]: Active
Activity [15]: Dose-Dependent Effect
Compound: COc1cccnc1S(=O)(=O)/C=C/c1ncccc1Cl
Activity [2]: Active
Activity [4]: Active
Activity [6]: Active
Activity [7]: Active
Activity [8]: Active
Activity [13]: Active
Activity [14]: Active
